The values below come from PubChem BioAssay (NCI).

The structures appear in SMILES notation.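 48-hour exposure; five concentrations; linearly interpolated endpoints. The concentration for full growth arrest is given as TGI.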 A value given as a limit tells only on which side of the number the result lay.

Among the test systems are RPMI-8226 leukemia; OVCAR-8 ovarian; T-47D breast; PC-3 prostate; DU-145 prostate; MOLT-4 leukemia; A549 NSCLC; OVCAR-5 ovarian; MDA-MB-231 breast; LOX IMVI melanoma; SR leukemia; MCF7 breast; M14 melanoma; HT29 colon; NCI-H23 lung; ACHN renal; K-562 leukemia; NCI-H522 lung; HOP-92 NSCLC.
Holding throughout (assay): NCI anticancer screen, dose series, 48 h

As to `Cc1c(/C=N/NC(=S)Nc2ccc(Cl)cc2)c(=O)n(-c2ccccc2)n1C`, the TGI in the assay with RPMI-8226 leukemia was > 100 µM; in the assay with OVCAR-8 ovarian, > 60.6 µM; with T-47D breast it was > 83.9 µM; in the assay on PC-3 prostate, > 100 µM; in the assay on DU-145 prostate, > 100 µM; in the assay on MOLT-4 leukemia, > 100 µM. Further, the TGI in the assay with A549 NSCLC is > 95.9 µM; with OVCAR-5 ovarian it was > 100 µM; in the assay with MDA-MB-231 breast it was 1.99 µM; with LOX IMVI melanoma, > 100 µM; with SR leukemia, > 100 µM; in the assay with MCF7 breast, > 54.9 µM. The TGI in the assay with M14 melanoma is > 100 µM; with HT29 colon, > 100 µM; in the assay with NCI-H23 lung, 54.5 µM; with ACHN renal, 31.9 µM; in the assay on K-562 leukemia, > 100 µM; with NCI-H522 lung, 22.4 µM.
Regarding `O=C1C2CCCCC2C(=O)N1n1c(-c2ccccc2)n[nH]c1=O` (stereo not drawn), the TGI in the assay on RPMI-8226 leukemia, in the assay on OVCAR-8 ovarian, with T-47D breast, in the assay on PC-3 prostate, with MOLT-4 leukemia and with A549 NSCLC was > 100 µM in each case. Also, the TGI in the assay with OVCAR-5 ovarian, in the assay on MDA-MB-231 breast, in the assay on LOX IMVI melanoma, with SR leukemia, in the assay with MCF7 breast and in the assay on M14 melanoma was > 100 µM in each case. Moreover, the TGI with HT29 colon, with NCI-H23 lung, in the assay with ACHN renal, in the assay on K-562 leukemia, with NCI-H522 lung and with HOP-92 NSCLC was > 100 µM in each case.
For the compound `CCOC(=O)c1ccc(C(=O)n2ccnc2)[nH]1`, the TGI with RPMI-8226 leukemia, in the assay on OVCAR-8 ovarian, in the assay on T-47D breast, in the assay with PC-3 prostate, in the assay on DU-145 prostate and with MOLT-4 leukemia was > 100 µM throughout. Further, the TGI in the assay with A549 NSCLC, with OVCAR-5 ovarian, in the assay on MDA-MB-231 breast, in the assay on LOX IMVI melanoma, in the assay on SR leukemia and with MCF7 breast was > 100 µM in each case. The TGI with M14 melanoma, in the assay with NCI-H23 lung, in the assay with ACHN renal, in the assay with K-562 leukemia and with NCI-H522 lung was > 100 µM in each case.
Consider `CCCC1CC(=O)NC(=O)C1C(=O)OC(C)(C)C` (stereo not drawn), for which the TGI in the assay with RPMI-8226 leukemia, with OVCAR-8 ovarian, in the assay on T-47D breast, with PC-3 prostate, in the assay on DU-145 prostate and in the assay on MOLT-4 leukemia was > 100 µM throughout. Moreover, the TGI with OVCAR-5 ovarian, in the assay on MDA-MB-231 breast, with LOX IMVI melanoma, with SR leukemia, in the assay on MCF7 breast and in the assay with HT29 colon was > 100 µM throughout. The TGI in the assay on NCI-H23 lung, in the assay on ACHN renal, in the assay on K-562 leukemia and in the assay on NCI-H522 lung was > 100 µM throughout.
In the case of `O=c1[nH]c(N/N=C\C(=N/Nc2nc3ccccc3c(=O)[nH]2)C(O)C(O)C(O)CO)nc2ccccc12` (stereo not drawn), the TGI in the assay with RPMI-8226 leukemia, with OVCAR-8 ovarian, with T-47D breast, in the assay with PC-3 prostate, with DU-145 prostate and in the assay with MOLT-4 leukemia was > 100 µM in each case. Moreover, the TGI in the assay with A549 NSCLC, in the assay on OVCAR-5 ovarian, in the assay on MDA-MB-231 breast, with LOX IMVI melanoma, with SR leukemia and in the assay on MCF7 breast was > 100 µM each time. Further, the TGI in the assay with M14 melanoma, with HT29 colon, in the assay with NCI-H23 lung, in the assay with ACHN renal, in the assay on K-562 leukemia and in the assay with HOP-92 NSCLC was > 100 µM throughout.
Regarding `O=C(O)c1ccccc1CC1Cc2cc3c(cc2C1)CCC3`, the TGI is > 100 µM in the assay with RPMI-8226 leukemia; > 100 µM with OVCAR-8 ovarian; 85.6 µM in the assay with T-47D breast; > 100 µM in the assay with DU-145 prostate; > 100 µM in the assay on MOLT-4 leukemia; > 100 µM with A549 NSCLC. Besides, the TGI with OVCAR-5 ovarian, in the assay with MDA-MB-231 breast, in the assay with LOX IMVI melanoma, in the assay with SR leukemia, with MCF7 breast and with M14 melanoma was > 100 µM throughout. In addition, the TGI with HT29 colon, in the assay with NCI-H23 lung, in the assay on ACHN renal, in the assay on K-562 leukemia and in the assay on NCI-H522 lung was > 100 µM each time.
Take `CNC(=O)C1(C#N)C(c2ccccc2)C(C#N)(C(=O)NC)C1c1ccccc1` (stereo not drawn): the TGI in the assay on RPMI-8226 leukemia, in the assay on OVCAR-8 ovarian, with T-47D breast, in the assay with PC-3 prostate, with MOLT-4 leukemia and in the assay with A549 NSCLC was > 100 µM each time. Besides, the TGI in the assay with OVCAR-5 ovarian, in the assay with LOX IMVI melanoma, in the assay with SR leukemia, in the assay on MCF7 breast, with M14 melanoma and with HT29 colon was > 100 µM throughout. For the same compound, the TGI in the assay with NCI-H23 lung, in the assay on ACHN renal, with K-562 leukemia, in the assay with NCI-H522 lung and with HOP-92 NSCLC was > 100 µM each time.
`COc1cc2c(c(O)c1OC)C(=O)[C@@H]1CCC(=O)N1C2c1ccccc1` (stereo partly drawn): the TGI in the assay with RPMI-8226 leukemia, in the assay with OVCAR-8 ovarian, in the assay on T-47D breast, in the assay on PC-3 prostate, in the assay with DU-145 prostate and with MOLT-4 leukemia was > 100 µM each time. In addition, the TGI in the assay with A549 NSCLC, in the assay on OVCAR-5 ovarian, in the assay on LOX IMVI melanoma, with SR leukemia, in the assay with MCF7 breast and in the assay with M14 melanoma was > 100 µM in each case. Moreover, the TGI with HT29 colon, in the assay on NCI-H23 lung, with ACHN renal, with K-562 leukemia and in the assay with NCI-H522 lung was > 100 µM each time.
